One assay deals with GM01896 cells (MPS II dermal fibroblasts). Nature of the assay: Assay 1: MPS cellular assay, MPS II (heparan sulfate disaccharide biomarkers by LC-MS). The assay is classed as cell-based, human. Particulars: Assay 1 for MPS II, heparan sulfate disaccharide biomarkers (I2a4, I2a6, I2S0 and/or I2S6), read-out: IC50 Range. Put shortly: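 MPS II patient dermal fibroblasts (GM01896) treated with compound at ≤30 μM for 4 to 21 days. Heparan sulfate GAGs isolated by anion exchange, digested with heparinases I-III, aniline-tagged against [13C6]aniline standards and quantified by LC-MS; IC50 from curve fitting. Viability monitored by alamar blue or ATP.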
What is called IC50 is the concentration at which inhibition is half-maximal. `Cc1nc2ccc(-c3cc(Nc4ccc(Cl)cc4)nc(N4CCOCC4)n3)cc2n1CCCN(C)C` [[3-(6-{6-[(4-chlorophenyl)amino]-2-morpholin-4-ylpyrimidin-4-yl}-2-methylbenzimidazolyl)propyl]dimethylamine]: the IC50 fell in the range of 500 to 1000 nM.
Still for that read-out and setting: the result for `Cc1nc2ccc(-c3cc(Nc4ccc(Cl)cc4)nc(N4CCOCC4)n3)cc2n1CCN(C)C` [[2-(6-{6-[(4-chlorophenyl)amino]-2-morpholin-4-ylpyrimidin-4-yl}-2-methylbenzimidazolyl)ethyl]dimethylamine] reads 1000 to 5000 nM.

Still in this assay, the particulars now being: Homo sapiens, Fibroblast, Assay 1 for MPS II, heparan sulfate disaccharide biomarkers (I2a4, I2a6, I2S0 and/or I2S6), read-out: IC50 Range.
Turning to `Cc1nn(C)c2cc(-c3cc(Nc4ccc(Cl)cc4)nc(N4CCOCC4)n3)ccc12` [[6-(1,3-dimethyl(1H-indazol-6-yl))-2-morpholin-4-ylpyrimidin-4-yl](4-chlorophenyl)amine], the IC50 fell in the range of 500 to 1000 nM.
Same read-out and setting: the result for `Cc1ccc(Nc2cc(-c3ccc4ncn(C)c4c3)nc(N3CCOCC3)n2)cc1` [[6-(1-methylbenzimidazol-6-yl)-2-morpholin-4-ylpyrimidin-4-yl](4-methylphenyl)amine] reads 1000 to 5000 nM; that for `Cc1nc2cc(-c3cc(Nc4ccc(Cl)cc4)nc(N4CCOCC4)n3)ccc2n1CCN1CCOCC1` [(4-chlorophenyl){6-[2-methyl-1-(2-morpholin-4-ylethyl)benzimidazol-5-yl]-2-morpholin-4-ylpyrimidin-4-yl}amine], 1000 to 5000 nM; that for `Cn1nc(CCN2CCOCC2)c2ccc(-c3cc(Nc4ccc(-c5cocn5)cc4)nc(N4CCOCC4)n3)cc21` [{6-[1-methyl-3-(2-morpholin-4-ylethyl)(1H-indazol-6-yl)]-2-morpholin-4-ylpyrimidin-4-yl}(4-(1,3-oxazol-4-yl)phenyl)amine], under 500 nM.
In the case of `Cc1nn(C)c2cc(-c3cc(Nc4ccc(-c5c[nH]cn5)cc4)nc(N4CCOCC4)n3)ccc12` [[6-(1,3-dimethyl(1H-indazol-6-yl))-2-morpholin-4-ylpyrimidin-4-yl](4-imidazol-4-ylphenyl)amine], the IC50 was in the range of 1000 to 5000 nM.
For the compound `Cn1ncc2ccc(-c3cc(Nc4ccc(-c5nnc(C(F)(F)F)[nH]5)cc4)nc(N4CCOCC4)n3)cc21` [[6-(1-methyl(1H-indazol-6-yl))-2-morpholin-4-ylpyrimidin-4-yl]{4-[5-(trifluoromethyl)(4H-1,2,4-triazol-3-yl)]phenyl}amine], the IC50 fell in the range of 1000 to 5000 nM.
For the compound `Clc1ccc(Nc2cc(-c3ccc4cn[nH]c4c3)nc(N3CCOCC3)n2)cc1` [N-(4-chlorophenyl)-6-(1H-indazol-6-yl)-2-morpholinopyrimidin-4-amine], the IC50 was 1000 to 5000 nM.
Consider `Cc1nn(C)c2cc(-c3cc(Nc4ccc5c(C)c(C)n(C)c5c4)nc(N4CCOCC4)n3)ccc12` [[6-(1,3-dimethyl(1H-indazol-6-yl))-2-morpholin-4-ylpyrimidin-4-yl](1,2,3-trimethylindol-6-yl)amine], for which the half-inhibitory concentration (IC50) lay within 1000 to 5000 nM.
On to `CNC(=O)c1ccc(Nc2cc(-c3ccc4cnn(CCN(C)C)c4c3)nc(N3CCOCC3)n2)cc1` [{4-[(6-{1-[2-(dimethylamino)ethyl](1H-indazol-6-yl)}-2-morpholin-4-ylpyrimidin-4-yl)amino]phenyl}-N-methylcarboxamide], for which the IC50 fell in the range of 500 to 1000 nM.
`Clc1ccc(Nc2cc(-c3ccc4cnn(CCCN5CCCC5)c4c3)nc(N3CCOCC3)n2)cc1` [(4-chlorophenyl){2-morpholin-4-yl-6-[1-(3-pyrrolidinylpropyl)(1H-indazol-6-yl)]pyrimidin-4-yl}amine]: the IC50 was in the range of 1000 to 5000 nM.
Consider `CCNC(=O)c1ccc(Nc2cc(-c3ccc4cnn(C)c4c3)nc(N3CCOCC3)n2)cc1` [N-ethyl(4-{[6-(1-methyl(1H-indazol-6-yl))-2-morpholin-4-ylpyrimidin-4-yl]amino}phenyl)carboxamide], for which the IC50 was in the range of 500 to 1000 nM.
Take `Cn1cnc2ccc(-c3cc(Nc4ccc(C(=O)NC5CC5)nc4)nc(N4CCOCC4)n3)cc21` [N-cyclopropyl(5-{[6-(1-methylbenzimidazol-6-yl)-2-morpholin-4-ylpyrimidin-4-yl]amino}(2-pyridyl))carboxamide]: the IC50 lay in the range of 500 to 1000 nM.
Still for that read-out and setting: the result for `Cn1nc(CCCO)c2ccc(-c3cc(Nc4ccc(Cl)cc4)nc(N4CCOCC4)n3)cc21` [3-(6-{6-[(4-chlorophenyl)amino]-2-morpholin-4-ylpyrimidin-4-yl}-1-methyl-1H-indazol-3-yl)propan-1-ol] reads 500 to 1000 nM; that for `CCc1nn(C)c2cc(-c3cc(Nc4ccc(Cl)cc4)nc(N4CCOCC4)n3)cnc12` [(4-chlorophenyl)[6-(3-ethyl-1-methylpyrazolo[4,5-b]pyridin-6-yl)-2-morpholin-4-ylpyrimidin-4-yl]amine], 1000 to 5000 nM.
Take `CN1NC=C2CC=C(c3cc(Nc4ccc(C(N)=O)cc4)nc(N4CCOCC4)n3)C=C21` [4-((6-(1-methyl-4H-indazol-6-yl)-2-morpholinopyrimidin-4-yl)amino)benzamide]: the IC50 fell in the range of 500 to 1000 nM.
For `CNC(=O)c1ccc(Nc2cc(-c3ccc4c(cnn4C)c3)nc(N3CCOCC3)n2)cc1` [N-methyl(4-{[6-(1-methyl(1H-indazol-5-yl))-2-morpholin-4-ylpyrimidin-4-yl]amino}phenyl)carboxamide], the half-inhibitory concentration (IC50) was 500 to 1000 nM.
In the case of `Cn1nc(CCN2CCOCC2)c2ccc(-c3nc(N4CCOCC4)nc(Nc4ccc(Cl)cc4)c3F)cc21` [(4-chlorophenyl){5-fluoro-6-[1-methyl-3-(2-morpholin-4-ylethyl)(1H-indazol-6-yl)]-2-morpholin-4-ylpyrimidin-4-yl}amine], the IC50 was 1000 to 5000 nM.
With `Cc1nn(C)c2cc(-c3cc(Nc4ccc(-c5ncno5)cc4)nc(N4CCOCC4)n3)ccc12` [[6-(1,3-dimethyl(1H-indazol-6-yl))-2-morpholin-4-ylpyrimidin-4-yl](4-(1,2,4-oxadiazol-5-yl)phenyl)amine], the IC50 lay within 1000 to 5000 nM.
Same read-out and setting: the result for `Cn1ncc2ccc(-c3cc(Nc4ccc(NS(C)(=O)=O)cc4)nc(N4CCOCC4)n3)cc21` [(4-{[6-(1-methyl(1H-indazol-6-yl))-2-morpholin-4-ylpyrimidin-4-yl]amino}phenyl)(methylsulfonyl)amine] reads 500 to 1000 nM.
Take `Cn1ccc2ccc(Nc3cc(-c4ccc5c(CCN6CCOCC6)nn(C)c5c4)nc(N4CCOCC4)n3)cc21` [(1-methylindol-6-yl){6-[1-methyl-3-(2-morpholin-4-ylethyl)(1H-indazol-6-yl)]-2-morpholin-4-ylpyrimidin-4-yl}amine]: the IC50 is under 500 nM.
For the compound `Cn1ncc2ccc(-c3cc(Nc4ccc(Cl)cc4)nc(N4CCOCC4)n3)cc21` [(4-chlorophenyl)[6-(1-methyl(1H-indazol-6-yl))-2-morpholin-4-ylpyrimidin-4-yl]amine], the IC50 fell in the range of 500 to 1000 nM.
Still for that read-out and setting: the result for `Cn1c(CN2CCOCC2)nc2ccc(-c3cc(Nc4ccc(Cl)cc4)nc(N4CCOCC4)n3)cc21` [(4-chlorophenyl){6-[1-methyl-2-(morpholin-4-ylmethyl)benzimidazol-6-yl]-2-morpholin-4-ylpyrimidin-4-yl}amine] reads 500 to 1000 nM.
In the case of `Cc1nn(-c2ccc(Nc3cc(-c4ccc5c(C)nn(C)c5c4)nc(N4CCOCC4)n3)cc2)nc1C` [[4-(4,5-dimethyl(1,2,3-triazol-2-yl))phenyl][6-(1,3-dimethyl(1H-indazol-6-yl))-2-morpholin-4-ylpyrimidin-4-yl]amine], the concentration for half-maximal inhibition (IC50) was in the range of 1000 to 5000 nM.
In the case of `Cn1nc(CCN2CCOCC2)c2ccc(-c3cc(Nc4ccc(-c5ncc[nH]5)cc4)nc(N4CCOCC4)n3)cc21` [(4-imidazol-2-ylphenyl){6-[1-methyl-3-(2-morpholin-4-ylethyl)(1H-indazol-6-yl)]-2-morpholin-4-ylpyrimidin-4-yl}amine], the IC50 is 1000 to 5000 nM.
As to `Cc1nnc(-c2ccc(Nc3cc(-c4ccc5c(C)nn(CCN6CCOCC6)c5c4)nc(N4CCOCC4)n3)cc2)[nH]1` [[4-(5-methyl(4H-1,2,4-triazol-3-yl))phenyl]{6-[3-methyl-1-(2-morpholin-4-ylethyl)(1H-indazol-6-yl)]-2-morpholin-4-ylpyrimidin-4-yl}amine], the IC50 is under 500 nM.
Regarding `CNC(=O)c1ccc(Nc2cc(-c3ccc4ncn(CCCN(C)C)c4c3)nc(N3CCOCC3)n2)cc1` [{4-[(6-{1-[3-(dimethylamino)propyl]benzimidazol-6-yl}-2-morpholin-4-ylpyrimidin-4-yl)amino]phenyl}-N-methylcarboxamide], the IC50 was in the range of 1000 to 5000 nM.
Still for that read-out and setting: the result for `Cn1ncc2ccc(-c3cc(Nc4ccc5cn[nH]c5c4)nc(N4CCOCC4)n3)cc21` [1H-indazol-6-yl[6-(1-methyl(1H-indazol-6-yl))-2-morpholin-4-ylpyrimidin-4-yl]amine] reads 1000 to 5000 nM; that for `CNC(=O)c1ccc(Nc2cc(-c3ccc4cnn(CCN5CCCC5)c4c3)nc(N3CCOCC3)n2)cc1` [N-methyl[4-({2-morpholin-4-yl-6-[1-(2-pyrrolidinylethyl)(1H-indazol-6-yl)]pyrimidin-4-yl}amino)phenyl]carboxamide], 500 to 1000 nM; that for `COc1ccc(Nc2cc(-c3ccc4cnn(C)c4c3)nc(N3CCOCC3)n2)cc1` [(4-methoxyphenyl)[6-(1-methyl(1H-indazol-6-yl))-2-morpholin-4-ylpyrimidin-4-yl]amine], 1000 to 5000 nM.
As for `Cc1ccc(Nc2cc(-c3ccc4cnn(C)c4c3)nc(N3CCOCC3)n2)cc1` [[6-(1-methyl(1H-indazol-6-yl))-2-morpholin-4-ylpyrimidin-4-yl](4-methylphenyl)amine], the IC50 lay in the range of 1000 to 5000 nM.
For `Clc1ccc(Nc2cc(-c3cccc4[nH]cnc34)nc(N3CCOCC3)n2)cc1` [6-(1H-benzo[d]imidazol-4-yl)-N-(4-chlorophenyl)-2-morpholinopyrimidin-4-amine], the IC50 lay in the range of 500 to 1000 nM.
Still for that read-out and setting: the result for `Cn1c(CCCN2CCOCC2)nc2ccc(-c3cc(Nc4ccc(Cl)cc4)nc(N4CCOCC4)n3)cc21` [(4-chlorophenyl){6-[1-methyl-2-(3-morpholin-4-ylpropyl)benzimidazol-6-yl]-2-morpholin-4-ylpyrimidin-4-yl}amine] reads 1000 to 5000 nM.

The values above are taken from patent publication US20190151312A1, “HEPARAN SULFATE BIOSYNTHESIS INHIBITORS FOR THE TREATMENT OF DISEASES” (BioMarin Pharmaceutical Inc., priority 2014, published 2019).
